Results published in US20090047246A1, “NOVEL INHIBITORS OF HEPATITIS C VIRUS REPLICATION” (InterMune, Inc., priority 2007, published 2009).

Molecular target: T1, HCV NS3 helicase (Hepatitis C virus genotype 1b, UniProt P26663)
T1 construct: full-length NS3 (1-631), purified at Array BioPharma
Assay: HCV Helicase Prompt FRET Assay (Example A)
Assay type: biochemical
Conditions: HCV NS3 helicase; tables do not say whether Example A or Example B assay; read-out: IC50 Activity
How it was run: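 Full-length NS3 (1-631), 5 or 6 nM, preincubated 5 min with compound, then unwinds 50 nM FAM/BHQ-1 duplex substrate with 250 nM capture strand and 300 μM ATP in 25 mM MOPS pH 7.0, 1.5 mM MgCl2, 0.005% Triton X-100, 2% DMSO. Fluorescence (485/535 nm) followed ~30 min at room temperature; IC50 from initial rates by 4- or 5-parameter fit.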

T1 sequence (P26663 1027-1657): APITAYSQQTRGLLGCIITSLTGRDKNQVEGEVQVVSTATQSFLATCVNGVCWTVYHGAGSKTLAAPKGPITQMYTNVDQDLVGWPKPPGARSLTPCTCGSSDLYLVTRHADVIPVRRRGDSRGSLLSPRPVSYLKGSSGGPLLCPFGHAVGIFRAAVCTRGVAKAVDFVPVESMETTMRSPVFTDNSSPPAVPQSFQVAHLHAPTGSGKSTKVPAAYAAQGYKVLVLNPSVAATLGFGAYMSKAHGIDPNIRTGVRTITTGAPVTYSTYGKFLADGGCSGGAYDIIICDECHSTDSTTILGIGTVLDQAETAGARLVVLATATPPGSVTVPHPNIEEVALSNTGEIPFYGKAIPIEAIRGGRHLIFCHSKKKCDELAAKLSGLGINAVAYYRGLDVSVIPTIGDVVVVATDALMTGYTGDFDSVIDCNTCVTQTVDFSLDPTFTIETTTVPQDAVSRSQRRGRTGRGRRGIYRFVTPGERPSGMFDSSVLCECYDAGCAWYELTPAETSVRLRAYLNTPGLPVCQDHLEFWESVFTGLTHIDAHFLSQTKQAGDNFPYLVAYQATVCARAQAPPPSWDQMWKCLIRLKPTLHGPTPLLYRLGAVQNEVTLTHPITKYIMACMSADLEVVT

Row | SMILES | IC50
1 | COc1ccc(-c2cccc(Cc3[nH]c4ccccc4c3CC(=O)O)c2)cc1 [Example 299] | < 10 µM
2 | O=C(O)Cc1c(Cc2cccc(-c3cccc(CO)c3)c2)[nH]c2ccccc12 [Example 300] | < 10 µM
3 | NC(=O)c1cccc(-c2cccc(Cc3[nH]c4ccccc4c3CC(=O)O)c2)c1 [Example 301] | 10 to 50 µM
4 | CC(C)c1cccc(-c2cccc(Cc3[nH]c4ccccc4c3CC(=O)O)c2)c1 [Example 302] | < 10 µM
5 | O=C(O)Cc1c(Cc2cccc(-c3cccc(Cl)c3Cl)c2)[nH]c2ccccc12 [Example 303] | < 10 µM
6 | O=C(O)Cc1c(Cc2ccc(-c3ccccc3)cc2)oc2ccccc12 [Example 305] | 10 to 50 µM
7 | O=C(O)Cc1c(Cc2ccc(-c3ccccc3)cc2)sc2ccccc12 [Example 306] | < 10 µM
8 | O=C(O)Cc1c(Cc2cccc(-c3cccc(Cl)c3Cl)c2)oc2ccccc12 [Example 307] | < 10 µM
9 | O=C(O)Cc1c(Cc2cccc(-c3ccc(Cl)cc3Cl)c2)oc2ccccc12 [Example 308] | < 10 µM
10 | O=C(O)Cc1c(Cc2cccc(-c3ccc(Cl)c(Cl)c3)c2)oc2ccccc12 [Example 309] | < 10 µM
11 | O=C(O)Cc1c(Cc2cccc(-c3cc(Cl)cc(Cl)c3)c2)oc2ccccc12 [Example 310] | < 10 µM
12 | CC(C)c1cccc(-c2cccc(Cc3oc4ccccc4c3CC(=O)O)c2)c1 [Example 311] | < 10 µM
13 | O=C(O)Cc1c(C(=O)c2ccc(-c3ccccc3)cc2)[nH]c2ccc(Br)cc12 [Example 312] | 10 to 50 µM
14 | Cc1cc([N+](=O)[O-])ccc1-n1cc(CP(=O)(O)O)c2cc(Br)ccc21 [Example 313] | 10 to 50 µM
15 | CS(=O)(=O)c1ccc(-n2cc(CP(=O)(O)O)c3cc(Br)ccc32)cc1 [Example 314] | 10 to 50 µM
16 | O=P(O)(O)Cc1cn(-c2ccc(S(=O)(=O)CCO)cc2)c2ccc(Br)cc12 [Example 315] | 10 to 50 µM
17 | N#Cc1ccnc(-n2cc(CP(=O)(O)O)c3cc(Br)ccc32)c1 [Example 316] | 10 to 50 µM
18 | O=[N+]([O-])c1ccc(-n2cc(CP(=O)(O)O)c3cc(Br)ccc32)nc1 [Example 317] | < 10 µM
19 | O=C(O)Cc1c[nH]c2ncccc12 [Example 318] | > 50 µM

Row | SMILES | IC50
20 | Cc1cc([N+](=O)[O-])ccc1-n1cc(CC(=O)O)c2cccnc21 [Example 319] | > 50 µM
21 | Cc1cc([N+](=O)[O-])ccc1-n1cc(I)c2cc(Br)cnc21 [Example 320] | > 50 µM
22 | C#Cc1cn(-c2ccc([N+](=O)[O-])cc2C)c2ncc(Br)cc12 [Example 321] | > 50 µM
23 | COC(=O)/C=C/c1cnc2c(c1)c(/C=C/C(=O)OC)cn2-c1ccc([N+](=O)[O-])cc1C [Example 322] | 10 to 50 µM
24 | Cc1cc([N+](=O)[O-])ccc1-n1cc(/C=C/C(=O)O)c2cc(/C=C/C(=O)O)cnc21 [Example 323] | > 50 µM
25 | Cc1cc([N+](=O)[O-])ccc1-n1cc(CC(=O)O)c2cc(Br)cnc21 [Example 324] | > 50 µM
26 | O=Cc1c[nH]c2cnc(OCc3ccccc3)cc12 [Example 326] | > 50 µM
27 | Cc1cc([N+](=O)[O-])ccc1-n1cc(C=O)c2cc(OCc3ccccc3)ncc21 [Example 327] | > 50 µM
28 | COC(=O)/C=C/c1cn(-c2ccc([N+](=O)[O-])cc2C)c2ncc(OCc3ccccc3)cc12 [Example 328] | > 50 µM
29 | COC(=O)C=Cc1cn(-c2ccc([N+](=O)[O-])cc2C)c2cnc(OCc3ccccc3)cc12 [Example 329] | > 50 µM
30 | Cc1cc([N+](=O)[O-])ccc1-n1cc(/C=C/C(=O)O)c2cc(Br)cnc21 [Example 330] | > 50 µM
31 | Cc1cc([N+](=O)[O-])ccc1-n1cc(C(=O)C(=O)O)c2cc(Br)cnc21 [Example 332] | 10 to 50 µM
32 | Cc1cc([N+](=O)[O-])ccc1-n1cc(C=CC(=O)O)c2cc(OCc3ccccc3)ncc21 [Example 333] | > 50 µM
33 | COC(=O)/C=C/c1cnc2c(c1)c(CC(=O)O)cn2-c1ccc(NCCC(=O)OC)cc1C [Example 334] | 10 to 50 µM
34 | O=C(O)Cc1cn(-c2ccc([N+](=O)[O-])cc2[N+](=O)[O-])c2ncc(Br)cc12 [Example 337] | 10 to 50 µM
35 | COC(OC)c1cc([N+](=O)[O-])ccc1-n1cc(CC(=O)O)c2cc(Br)ccc21 [Example 338] | > 50 µM
36 | O=C(O)Cc1cn(-c2ccc([N+](=O)[O-])cc2C2OCCO2)c2ccc(Br)cc12 [Example 339] | 10 to 50 µM
37 | O=C(O)Cc1c(Cc2csc3ccc(Cl)cc23)[nH]c2cc(OCc3ccccc3)ccc12 [Example 347] | < 10 µM
38 | O=C(O)Cc1c(Cc2csc3ccc(Cl)cc23)n(Cc2csc3ccc(Cl)cc23)c2cc(OCc3ccccc3)ccc12 [Example 348] | < 10 µM

The remaining lines, values ahead:

Row | IC50 | SMILES
39 | < 10 µM | O=C(O)Cc1cn(Cc2csc3ccc(Cl)cc23)c2cc(OCc3ccccc3)ccc12 [Example 340]
40 | > 50 µM | COc1ccc2c(CC(=O)O)cn(-c3ccc([N+](=O)[O-])cc3C)c2c1 [Example 341]
41 | 10 to 50 µM | COc1cc2c(cc1OCc1ccccc1)c(CC(=O)O)cn2-c1ccc([N+](=O)[O-])cc1C [Example 342]
42 | 10 to 50 µM | Cc1cc([N+](=O)[O-])ccc1-n1cc(CC(=O)O)c2ccc(OCc3ccccc3)cc21 [Example 343]
43 | > 50 µM | Cc1cc([N+](=O)[O-])ccc1-n1cc(CC(=O)O)c2cc3c(cc21)OCO3 [Example 344]
44 | 10 to 50 µM | COc1ccc2c(CC(=O)O)cn(Cc3csc4ccc(Cl)cc34)c2c1 [Example 345]
45 | 10 to 50 µM | COc1cc2c(cc1OCc1ccccc1)c(CC(=O)O)cn2Cc1csc2ccc(Cl)cc12 [Example 346]
46 | 10 to 50 µM | CCOc1ccc2c(CC(=O)O)cn(Cc3csc4ccc(Cl)cc34)c2c1 [Example 349]
47 | > 50 µM | O=C(OCc1ccccc1)C(Cc1ccccc1)c1cn(Cc2csc3ccc(Cl)cc23)c2cc(OCc3ccccc3)ccc12 (stereo not drawn) [Example 350]
48 | < 10 µM | O=C(O)C(Cc1ccccc1)c1cn(Cc2csc3ccc(Cl)cc23)c2cc(OCc3ccccc3)ccc12 (stereo not drawn) [Example 351]
49 | < 10 µM | C=COc1ccc2c(CC(=O)O)cn(Cc3csc4ccc(Cl)cc34)c2c1 [Example 352]
50 | < 10 µM | O=C(O)Cc1cn(Cc2csc3ccc(Cl)cc23)c2cc(-c3ccccc3)ccc12 [Example 353]
51 | > 50 µM | O=C(O)Cc1cn(CC(=O)O)c2cc(-c3ccccc3)ccc12 [Example 354]
52 | > 50 µM | O=C(O)Cc1c[nH]c2c(Oc3ccc([N+](=O)[O-])cc3)cccc12 [Example 355]
53 | < 10 µM | O=C(O)Cc1cn(Cc2csc3ccc(Cl)cc23)c2c(Oc3ccc([N+](=O)[O-])cc3)cccc12 [Example 356]
54 | < 10 µM | O=C(O)Cc1cn(Cc2csc3ccc(Cl)cc23)c2cc(Oc3ccc([N+](=O)[O-])cc3)ccc12 [Example 357]
55 | < 10 µM | O=C(O)Cc1cn(Cc2csc3ccc(Cl)cc23)c2cc(OCc3ccccc3)c(OCc3ccccc3)cc12 [Example 358]
56 | 10 to 50 µM | O=C(O)Cc1cn(Cc2csc3ccc(Cl)cc23)c2cc(Br)ccc12 [Example 359]
57 | < 10 µM | O=C(O)C(Cc1csc2ccc(Cl)cc12)c1cn(Cc2csc3ccc(Cl)cc23)c2cc(Br)ccc12 (stereo not drawn) [Example 360]
58 | < 10 µM | O=C(O)C(Cc1csc2ccc(Cl)cc12)c1cn(Cc2csc3ccc(Cl)cc23)c2cc(-c3ccco3)ccc12 (stereo not drawn) [Example 361]

Row | IC50 | SMILES
59 | < 10 µM | Nc1cccc(-c2ccc3c(CC(=O)O)cn(Cc4csc5ccc(Cl)cc45)c3c2)c1 [Example 363]
60 | < 10 µM | C#Cc1ccc2c(CC(=O)O)cn(Cc3csc4ccc(Cl)cc34)c2c1 [Example 364]
61 | < 10 µM | Nc1cc(-c2ccc3c(CC(=O)O)cn(Cc4csc5ccc(Cl)cc45)c3c2)cc([N+](=O)[O-])c1 [Example 365]
62 | < 10 µM | O=C(O)Cc1c(Cc2csc3ccc(Cl)cc23)n(Cc2ccccc2)c2cc(OCc3ccccc3)ccc12 [Example 366]
63 | < 10 µM | C=CCn1c(Cc2csc3ccc(Cl)cc23)c(CC(=O)O)c2ccc(OCc3ccccc3)cc21 [Example 367]
64 | < 10 µM | Cn1c(Cc2csc3ccc(Cl)cc23)c(CC(=O)O)c2ccc(OCc3ccccc3)cc21 [Example 368]
65 | < 10 µM | O=C(O)Cc1c(Cc2csc3ccc(Cl)cc23)n(CC2CC2)c2cc(OCc3ccccc3)ccc12 [Example 369]
66 | < 10 µM | CCn1c(Cc2csc3ccc(Cl)cc23)c(CC(=O)O)c2ccc(OCc3ccccc3)cc21 [Example 370]
67 | < 10 µM | Cc1cc([N+](=O)[O-])ccc1-n1c(Cc2csc3ccc(Cl)cc23)c(CC(=O)O)c2ccc(OCc3ccccc3)cc21 [Example 371]
68 | < 10 µM | O=C(O)Cc1c(Cc2csc3ccc(Cl)cc23)n(-c2ccc([N+](=O)[O-])cc2)c2cc(OCc3ccccc3)ccc12 [Example 372]
69 | < 10 µM | Nc1cc(N)cc(-c2ccc3c(CC(=O)O)cn(Cc4csc5ccc(Cl)cc45)c3c2)c1 [Example 373]
70 | 10 to 50 µM | O=C(O)Cc1c(Cc2csc3ccc(Cl)cc23)[nH]c2ccc(Br)cc12 [Example 374]
71 | > 50 µM | Cc1cc([N+](=O)[O-])ccc1-n1ccc2cc(Br)ccc21 [Example 376]
72 | > 50 µM | Cc1cc([N+](=O)[O-])ccc1-n1cc(CC(=O)O)c2ccccc21 [Example 377]
73 | > 50 µM | COC(=O)Cc1cn(-c2ccc([N+](=O)[O-])cc2C)c2ccc(Br)cc12 [Example 378]
74 | 10 to 50 µM | CCOC(=O)C(=O)c1cn(-c2ccc([N+](=O)[O-])cc2C)c2ccc(Br)cc12 [Example 379]
75 | > 50 µM | Cc1ccc2c(c1)c(CC(=O)O)cn2-c1ccc([N+](=O)[O-])cc1C [Example 380]
76 | 10 to 50 µM | Cc1cc([N+](=O)[O-])ccc1-n1cc(C(=O)C(=O)O)c2cc(Br)ccc21 [Example 381]
77 | > 50 µM | Cc1cc([N+](=O)[O-])ccc1-n1cc(C(=O)O)c2cc(Br)ccc21 [Example 382]
78 | 10 to 50 µM | CCOC(=O)C(F)(F)c1cn(-c2ccc([N+](=O)[O-])cc2C)c2ccc(Br)cc12 [Example 383]
